Consider 25 compounds from patent publication US8785459B2, “Quinazoline compounds as kinase inhibitors” (Development Center for Biotechnology, priority 2011, dated 2014).

Holding throughout (format): biochemical
In one test the target is B-Raf (Homo sapiens (Human), UniProt P15056). The experiment in a line: Raf kinase assay (B-Raf), [33P] incorporation into MEK1(K97R). The conditions noted are these: for inhibition at 1 µM: 1.0 μM compound, read-out: B-Raf inhibition at 1.0 μM. The protocol:
(§1) A. Raf Kinase Assays (B-Raf, B-raf (V600E), and C-Raf)
(§2) Inhibition of kinase activity by test compound disclosed herein was estimated by quantifying the amount of [^33P] incorporation of substrate in the presence of test compound. Standard assay conditions were 2 ng of recombinant C-Raf or 5 ng of recombinant B-Raf or 5 ng of recombinant B-Raf (V600E) kinase (Upstate Biotechnology) with 500 ng MEK1(K97R) in assay buffer {8 μM ATP, 0.5 μCi [^33P]ATP (specific activity 3000 Ci/mmol, PerkinElmer), 50 mM Tris/HCl (pH7.5), and 1 mM EGTA, 1 mM Na3VO4, 1% 2-mercaptoethanol, 0.1% Brij 35, and 0.2 mg/ml BSA} at a final volume of 25 μL. Reactions were incubated at 30° C. for 30 min and stopped by adding 3% phosphoric acid, harvested onto a 96-well GF/B UniFilter (PerkinElmer) using a unifilter harvester (PerkinElmer), and counted with a TopCount microplate scintillation counter (PerkinElmer). The IC50 values of inhibitors were determined after carrying out assays at 3-fold serially diluted concentrations of each compound in duplication. The results were analyzed using linear regression software (GraphPad Prism 4; GraphPad Software Inc.). Inhibition of B-Raf, B-raf (V600E), and C-Raf kinases by various compounds listed in Table 1 are summarized and shown in Table 3 below. IC50 value is defined as the concentration of the test compound which achieves a half-maximal inhibition of the kinase activity.

The next test concerns the target B-Raf (V600E) (Homo sapiens (Human), UniProt P15056, V600E). The experiment in a line: Raf kinase assay (B-Raf (V600E)), [33P] incorporation into MEK1(K97R). The procedure: as §1, §2
The next test addresses C-Raf (Homo sapiens (Human), UniProt P04049). In words: Raf kinase assay (C-Raf), [33P] incorporation into MEK1(K97R). The protocol: as §1, §2

Chain of B-Raf (V600E) (P15056 whole entry V600E): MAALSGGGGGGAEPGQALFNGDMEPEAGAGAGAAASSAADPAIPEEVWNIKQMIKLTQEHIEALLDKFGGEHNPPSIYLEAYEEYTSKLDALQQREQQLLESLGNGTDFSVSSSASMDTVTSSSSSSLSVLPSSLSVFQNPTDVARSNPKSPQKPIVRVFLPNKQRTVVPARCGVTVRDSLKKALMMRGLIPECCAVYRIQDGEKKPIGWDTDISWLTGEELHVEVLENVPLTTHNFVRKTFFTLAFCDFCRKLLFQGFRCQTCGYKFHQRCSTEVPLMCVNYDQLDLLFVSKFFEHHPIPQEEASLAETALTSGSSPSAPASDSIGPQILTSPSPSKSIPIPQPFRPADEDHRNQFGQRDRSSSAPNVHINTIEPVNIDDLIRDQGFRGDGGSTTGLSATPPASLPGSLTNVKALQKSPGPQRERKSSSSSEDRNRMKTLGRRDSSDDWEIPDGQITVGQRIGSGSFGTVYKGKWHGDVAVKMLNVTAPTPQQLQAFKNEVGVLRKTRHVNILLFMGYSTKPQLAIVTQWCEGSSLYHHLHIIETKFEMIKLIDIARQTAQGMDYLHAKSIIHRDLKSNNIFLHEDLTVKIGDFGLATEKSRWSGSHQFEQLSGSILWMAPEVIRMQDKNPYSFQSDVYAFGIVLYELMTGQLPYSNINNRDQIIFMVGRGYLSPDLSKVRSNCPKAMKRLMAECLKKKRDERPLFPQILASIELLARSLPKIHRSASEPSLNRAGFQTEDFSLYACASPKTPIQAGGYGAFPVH
Chain of C-Raf (P04049 whole entry): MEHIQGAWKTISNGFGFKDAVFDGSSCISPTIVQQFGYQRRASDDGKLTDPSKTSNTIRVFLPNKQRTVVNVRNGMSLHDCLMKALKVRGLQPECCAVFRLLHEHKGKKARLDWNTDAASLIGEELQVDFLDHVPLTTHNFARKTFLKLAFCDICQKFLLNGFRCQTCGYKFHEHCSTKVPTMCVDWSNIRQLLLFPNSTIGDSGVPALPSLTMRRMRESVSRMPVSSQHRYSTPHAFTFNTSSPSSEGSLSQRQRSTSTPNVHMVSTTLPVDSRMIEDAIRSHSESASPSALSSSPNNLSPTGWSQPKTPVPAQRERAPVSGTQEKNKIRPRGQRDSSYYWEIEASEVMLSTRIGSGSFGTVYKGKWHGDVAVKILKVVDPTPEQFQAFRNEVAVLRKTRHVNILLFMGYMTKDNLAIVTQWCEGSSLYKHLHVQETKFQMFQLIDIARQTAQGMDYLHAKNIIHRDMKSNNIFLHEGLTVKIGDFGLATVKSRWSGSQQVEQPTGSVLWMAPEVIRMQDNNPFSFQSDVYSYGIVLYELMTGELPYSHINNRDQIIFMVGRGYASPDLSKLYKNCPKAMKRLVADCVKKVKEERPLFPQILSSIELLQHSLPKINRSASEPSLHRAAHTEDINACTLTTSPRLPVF
Chain of B-Raf (P15056 whole entry): as the sequence (P15056 whole entry V600E) above, with E600V counted along it

Consider `COc1cc(-c2ccc3ncnc(Nc4ccc(Cl)cc4F)c3c2)ccc1O` [Compound 16, 4-(4-(4-chloro-2-fluorophenylamino)quinazolin-6-yl)-2-methoxyphenol], for which the IC50 (usually the concentration that gives 50% inhibition) against B-Raf was found to be 817 nM; against B-Raf (V600E), 810 nM; against C-Raf, 1250 nM. Besides, at B-Raf, the inhibition (in general, the relative decrease from the control value, in per cent) at 1 µM was determined as 51.5%.
As to `COc1cc(-c2ccc3ncnc(Nc4ccc(C)cc4F)c3c2)ccc1O` [Compound 17, 4-(4-(2-fluoro-4-methylphenylamino)quinazolin-6-yl)-2-methoxyphenol], the figures for the concentration for half-maximal inhibition (IC50) on B-Raf, at B-Raf (V600E) and on C-Raf were 647 nM, 619 nM and 1910 nM, respectively. In addition, the inhibition at 1 µM on B-Raf came to 59.4%.
As to `COc1cc(-c2ccc3ncnc(Nc4cccc(C(F)(F)F)c4)c3c2)ccc1O` [Compound 18, 2-methoxy-4-(4-(3-(trifluoromethyl)phenylamino)quinazolin-6-yl)phenol], the values for the concentration for half-maximal inhibition (IC50) against B-Raf, on B-Raf (V600E) and at C-Raf were 3140 nM, 1170 nM and greater than 10000 nM, respectively. The inhibition at 1 µM on B-Raf is 48.9%.
For the compound `COc1cc(-c2ccc3ncnc(Nc4ccc(F)cc4F)c3c2)ccc1O` [Compound 20, 4-(4-(2,4-difluorophenylamino)quinazolin-6-yl)-2-methoxyphenol], the IC50 against B-Raf worked out at 594 nM; at B-Raf (V600E), 471 nM; against C-Raf, 882 nM. Besides, the inhibition at 1 µM on B-Raf came to 55.3%.
In the case of `COc1cc(-c2ccc3ncnc(Nc4ccc(Cl)cc4O)c3c2)ccc1O` [Compound 21, 4-(4-(4-chloro-2-hydroxyphenylamino)quinazolin-6-yl)-2-methoxyphenol], the half-inhibitory concentration (IC50) on B-Raf came out at 1120 nM; on B-Raf (V600E) it was 1360 nM; against C-Raf it was 810 nM. Further, the inhibition at 1 µM on B-Raf stood at 47.6%.
In the same order, the values of `COc1cccc(Nc2ncnc3ccc(-c4ccc(O)c(OC)c4)cc23)c1` [Compound 22, 2-methoxy-4-(4-(3-methoxyphenylamino)quinazolin-6-yl)phenol] are 719 nM, 411 nM, 1390 nM and 63.3%.
With `COc1cc(-c2ccc3ncnc(Nc4ccccc4O)c3c2)ccc1O` [Compound 23, 4-(4-(2-hydroxyphenylamino)quinazolin-6-yl)-2-methoxyphenol], the concentration for half-maximal inhibition (IC50) was determined as 669 nM against B-Raf, 377 nM at B-Raf (V600E) and 3090 nM at C-Raf. Besides, the inhibition at 1 µM on B-Raf was found to be 62.6%.
Consider `COc1ccc(Nc2ncnc3ccc(-c4ccc(O)c(OC)c4)cc23)cc1O` [Compound 25, 4-(4-(3-hydroxy-4-methoxyphenylamino)quinazolin-6-yl)-2-methoxyphenol], for which the IC50 was 1110 nM on B-Raf, 842 nM at B-Raf (V600E) and 1560 nM at C-Raf. On B-Raf, the inhibition at 1 µM worked out at 54.9%.
In the same order, the values of `COc1cc(-c2ccc3ncnc(Nc4cccc(S(N)(=O)=O)c4)c3c2)ccc1O` [Compound 27, 3-(6-(4-hydroxy-3-methoxyphenyl)quinazolin-4-ylamino)benzenesulfonamide] are 415 nM, 453 nM, 887 nM and 77.2%.
In the case of `COc1cc(-c2ccc3ncnc(Nc4ccc(C)c(O)c4)c3c2)ccc1O` [Compound 29, 4-(4-(3-hydroxy-4-methylphenylamino)quinazolin-6-yl)-2-methoxyphenol], the IC50 against B-Raf stood at 177 nM; at B-Raf (V600E), 212 nM; against C-Raf, 1060 nM. The inhibition at 1 µM on B-Raf worked out at 85.7%.
In the same order, the values of `COc1cc(-c2ccc3ncnc(Nc4ccccc4C(N)=O)c3c2)ccc1O` [Compound 33, 2-(6-(4-hydroxy-3-methoxyphenyl)quinazolin-4-ylamino)benzamide] are 667 nM, 2340 nM, greater than 3000 nM and 53.6%.
Consider `COc1cc(-c2ccc3ncnc(Nc4ccc(C(=O)O)cc4O)c3c2)ccc1O` [Compound 34, 3-hydroxy-4-(6-(4-hydroxy-3-methoxyphenyl)quinazolin-4-ylamino)benzoic acid], for which the IC50 was determined as 494 nM against B-Raf, 572 nM against B-Raf (V600E) and 580 nM at C-Raf. Further, the inhibition at 1 µM at B-Raf was 65%.
Regarding `COc1cc(-c2ccc3ncnc(Nc4cccc(C(N)=O)c4)c3c2)ccc1O` [Compound 35, 3-(6-(4-hydroxy-3-methoxyphenyl)quinazolin-4-ylamino)benzamide], the concentration for half-maximal inhibition (IC50) was determined as 317 nM against B-Raf, 290 nM against B-Raf (V600E) and 970 nM at C-Raf. For the same compound, at B-Raf, the inhibition at 1 µM was determined as 74.9%.
Consider `COc1cc(-c2ccc3ncnc(Nc4cccc([N+](=O)[O-])c4)c3c2)ccc1O` [Compound 36, 2-methoxy-4-(4-(3-nitrophenylamino)quinazolin-6-yl)phenol], for which the IC50 worked out at 256 nM against B-Raf, 675 nM against B-Raf (V600E) and 6990 nM against C-Raf. Also, the inhibition at 1 µM on B-Raf was 76.3%.
Take `COc1cc(-c2ccc3ncnc(Nc4cccc(N)c4)c3c2)ccc1O` [Compound 37, 4-(4-(3-aminophenylamino)quinazolin-6-yl)-2-methoxyphenol]: the figures for the IC50 against B-Raf, on B-Raf (V600E) and on C-Raf were 573 nM, 849 nM and 1310 nM, respectively. The inhibition at 1 µM at B-Raf was found to be 65.8%.
In the same order, the values of `COc1cc(-c2ccc3ncnc(Nc4ccc5c(c4)OCO5)c3c2)ccc1O` [Compound 38, 4-(4-(benzo[d][1,3]dioxol-5-ylamino)quinazolin-6-yl)-2-methoxyphenol] are 660 nM, 707 nM, 1400 nM and 57.5%.
As to `COc1cc(-c2ccc3ncnc(Nc4ccc5cn[nH]c5c4)c3c2)ccc1O` [Compound 39, 4-(4-(1H-indazol-6-ylamino)quinazolin-6-yl)-2-methoxyphenol], the IC50 against B-Raf is 1030 nM; against B-Raf (V600E), 1440 nM; against C-Raf, 3280 nM. The inhibition at 1 µM at B-Raf came out at 51.6%.
Consider `COc1cc(-c2cc3c(Nc4ccc(C)c(O)c4)ncnc3cc2OC)ccc1O` [Compound 41, 4-(4-(3-hydroxy-4-methylphenylamino)-7-methoxyquinazolin-6-yl)-2-methoxyphenol], for which the 50% inhibitory concentration (IC50) on B-Raf is 266 nM; at B-Raf (V600E) it was 349 nM; on C-Raf, greater than 10000 nM. Further, the inhibition at 1 µM at B-Raf worked out at 82.2%.
In the same order, the values of `COc1cc(-c2ccc3ncnc(Nc4cccc(NC(C)=O)c4)c3c2)ccc1O` [Compound 44, N-(3-(6-(4-hydroxy-3-methoxyphenyl)quinazolin-4-ylamino)phenyl)acetamide] are 489 nM, 382 nM, 685 nM and 65.3%.
Consider `COc1cc(-c2ccc3ncnc(Nc4cccc(NC(=O)C(F)(F)F)c4)c3c2)ccc1O` [Compound 45, 2,2,2-trifluoro-N-(3-(6-(4-hydroxy-3-methoxyphenyl)quinazolin-4-ylamino)phenyl)acetamide], for which the results for the IC50 against B-Raf, against B-Raf (V600E) and against C-Raf were 382 nM, 358 nM and 835 nM, respectively. The inhibition at 1 µM at B-Raf was 73.9%.
In the same order, the values of `COc1cc(-c2ccc3ncnc(Nc4ccc(S(N)(=O)=O)cc4)c3c2)ccc1O` [Compound 46, 4-(6-(4-hydroxy-3-methoxyphenyl)quinazolin-4-ylamino)benzenesulfonamide] are 624 nM, 576 nM, 1960 nM and 64.4%.
In the case of `COc1cc(-c2ccc3ncnc(Nc4cccc(F)c4)c3c2)ccc1O` [Compound 52, 4-(4-(3-fluorophenylamino)quinazolin-6-yl)-2-methoxyphenol], the figures for the IC50 against B-Raf, at B-Raf (V600E) and against C-Raf were 560 nM, 544 nM and 1300 nM, respectively. Besides, the inhibition at 1 µM at B-Raf is 69.2%.
As to `COc1cc(-c2ccc3ncnc(Nc4cccc(O)c4C)c3c2)ccc1O` [Compound 53, 3-(6-(4-hydroxy-3-methoxyphenyl)quinazolin-4-ylamino)-2-methylphenol], the half-inhibitory concentration (IC50) on B-Raf amounted to 141 nM; against B-Raf (V600E) it was 181 nM; against C-Raf it was 500 nM. Besides, at B-Raf, the inhibition at 1 µM amounted to 85.5%.
In the case of `COc1cc(-c2ccc3ncnc(Nc4ccc5nc[nH]c5c4)c3c2)ccc1O` [Compound 54, 4-(4-(1H-benzo[d]imidazol-6-ylamino)quinazolin-6-yl)-2-methoxyphenol], the IC50 against B-Raf is 735 nM; against B-Raf (V600E), 633 nM; on C-Raf, 2570 nM. Moreover, the inhibition at 1 µM at B-Raf was determined as 56.2%.
For `COc1cc(-c2ccc3ncnc(Nc4cccc(NS(C)(=O)=O)c4)c3c2)ccc1O` [Compound 56, N-(3-(6-(4-hydroxy-3-methoxyphenyl)quinazolin-4-ylamino)phenyl)methanesulfonamide], the IC50 against B-Raf amounted to 463 nM; on B-Raf (V600E), 430 nM; against C-Raf it was 1410 nM. Also, on B-Raf, the inhibition at 1 µM amounted to 64.1%.
